{"source": "paper PMC4580987", "about": "“Catalytic site inhibition of insulin-degrading enzyme by a small molecule induces glucose intolerance in mice” (Nature Communications, 2015)", "key": {"Solubility in PBS pH 7.4": {"assay": "Solubility in PBS pH 7.4", "type": "physicochemical", "settings": "aqueous buffer, kinetic from dmso stock", "description": "Ten microlitre of a 10 mM solution in DMSO of the compound are diluted either in 490 μl of PBS pH 7.4 or in organic solvent MeOH in a 700 μl-microtube (in triplicate). The tubes are gently shaken 24 h at room temperature, then centrifuged for 5 min at 4,000 r.p.m. The mixtures are filtered over 0.45 μm filters (Millex-LH Millipore). Twenty microlitre of sample are diluted in 180 μl of MeOH. The solubility is determined by the ratio of mass signal area PBS/ organic solvent. Forty microlitre of a 10 mM solution in DMSO of the compound were diluted in 1.960 ml of a 1/1 octanol /PBS at pH 7.4 mixture. The mixture was gently shaken 2 h at room temperature. Twenty microlitre of each phase was diluted in 480 μl of MeOH and analysed by LC–MS. Each compound is tested in triplicate. Log D was determined as the logarithm of the ratio of concentration of product in octanol and PBS respectively, determined by mass signals."}, "Caco-2 permeation assay": {"assay": "Caco-2 permeation assay", "type": "in vitro ADME", "settings": "human, 37 °C, pH 7.4/7.4", "source_text": "Caco-2 cells were provided by ATCC and checked for mycoplasma contamination. These cells are not listed by ICLAC as misidentified cell lines (October 3rd, 2014). A total of 0.4 × 10^5 Caco-2 cells (ATCC no. […] The paracellular barrier characteristics of Caco-2 cells monolayer was monitored using (i) measurement of […] and (ii) measurement of the permeability to the non-permeant fluorescent molecule, Lucifer Yellow. Caco-2 cells were trypsinized after 3 days of incubation while they cover 80–90% of the flask and seeded at a density of 5 × 10^5 in 75 cm^2 flasks in complete medium supplemented with 73 nM (∼0.04 μg ml^−1) of the antibacterial puromycin (3′-[α-amino-p-methoxyhydrocinnamamido]-3′-deoxy-N,Ndimethyladenosine dihydrochloride). After 5–6 days, Caco-2 cells reach high cells density (>0.5 × 10^5 cells per cm^2) and are then passage into cell HTS 24-well plates with 0.4 μm polycarbonate membrane inserts. Cells were seeded at 600,000 cells per cm^2 (200,000 cells per insert) and cultivated for 6 days in complete medium with puromycin. Media was replaced every second days. Compound solutions were prepared in HEPES-buffered Ringerŕs (RH) solution (NaCl 150 mM, KCl 5.2 mM, CaCl2 2.2 mM, MgCl2 0.2 mM, NaHCO3 6 mM, Glucose 2.8 mM, HEPES 5 mM, water for injection), pH=7.4 at a final concentration of 1 or 10 μM for tested drugs. For A→B transport experiment, 0.2 ml of the compound solution was placed on the apical side of the cells and samples were taken from the basolateral compartment. For B→A transport experiment 0.8 ml of the solution was placed on the basolateral side of the cells and samples were taken from apical side. Transport Studies were done in Transwell polycarbonate: HTS 24-well plate inserts (surface area: 0.33 cm^2–0.4 μm pore size). Cells were equilibrated for 10 min in transport buffer prior to the transport experiment, and then incubations with compounds were performed at 37 °C under agitation. After 1 h aliquots were taken from each compartment and sampled in 96-well plates with glass insert. Permeation and the % of recovery are calculated using the formulas below: […]"}, "[1]": {"test_system": "human SY5Y neuroblastoma cells", "assay": "Aβ1–40 secretion by differentiated SH-SY5Y cells (ELISA)", "type": "cell-based", "settings": "10 μM and 30 μM, 48 h", "description": "The human neuroblastoma cell lines SH-SY5Y were provided from ATCC (cat. no. crl2266) with a Certificate of Analysis and not checked in the lab for mycoplasma contamination. […] SH-SY5Y were seeded in a 96-well plate at 200,000 cells per cm^2. […] Differentiated cells were then incubated with compounds at 10 μM and 30 μM in presence of 0.1% DMSO."}, "hIDE": {"molecular_target": "T1, hIDE (Homo sapiens, UniProt P14735)", "T1 construct": "made in house", "T1 sequence (P14735 1-1019)": "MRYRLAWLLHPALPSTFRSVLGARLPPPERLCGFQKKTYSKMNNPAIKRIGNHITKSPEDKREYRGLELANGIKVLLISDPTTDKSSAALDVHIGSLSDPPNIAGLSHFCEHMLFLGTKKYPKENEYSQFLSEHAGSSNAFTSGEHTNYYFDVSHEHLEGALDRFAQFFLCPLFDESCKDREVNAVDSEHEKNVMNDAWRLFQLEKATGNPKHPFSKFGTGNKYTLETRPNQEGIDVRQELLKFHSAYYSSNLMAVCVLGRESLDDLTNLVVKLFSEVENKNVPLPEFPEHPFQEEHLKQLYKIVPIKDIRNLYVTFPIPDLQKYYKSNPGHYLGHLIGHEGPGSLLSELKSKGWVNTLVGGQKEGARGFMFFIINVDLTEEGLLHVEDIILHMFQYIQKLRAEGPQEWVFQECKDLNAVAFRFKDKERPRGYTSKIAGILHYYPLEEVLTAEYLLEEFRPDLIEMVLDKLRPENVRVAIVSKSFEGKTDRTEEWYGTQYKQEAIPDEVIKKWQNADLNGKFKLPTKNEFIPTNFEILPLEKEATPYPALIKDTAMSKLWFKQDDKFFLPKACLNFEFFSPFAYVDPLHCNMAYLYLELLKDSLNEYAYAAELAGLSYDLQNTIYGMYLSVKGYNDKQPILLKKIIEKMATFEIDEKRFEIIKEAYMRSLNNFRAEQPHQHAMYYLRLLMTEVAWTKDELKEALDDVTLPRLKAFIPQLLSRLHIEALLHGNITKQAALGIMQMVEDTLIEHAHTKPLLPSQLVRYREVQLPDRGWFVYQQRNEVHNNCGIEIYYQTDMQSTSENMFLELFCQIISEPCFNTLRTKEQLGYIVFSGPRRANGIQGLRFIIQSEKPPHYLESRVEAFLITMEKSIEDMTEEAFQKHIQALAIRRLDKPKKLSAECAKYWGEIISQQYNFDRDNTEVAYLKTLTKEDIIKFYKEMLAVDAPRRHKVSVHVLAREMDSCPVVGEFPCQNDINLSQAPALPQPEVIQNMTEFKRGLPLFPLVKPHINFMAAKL", "assay": "Small-angle X-ray scattering (SAXS) of hIDE conformation", "description": "SAXS data were collected at the APS 18-ID (BioCAT) with the Mar 165 CCD detector at room temperature (24 °C). The incident X-ray wavelength is 1.033 Å. hIDE was purified as described before. After 2 gel-filtration, hIDE was concentrated and dialysis against 20 mM Hepes, pH 7.2, 100 mM NaCl. […] The data reducing and all data processing were carried out using ATSAS. P(r) function was calculated with GNOM[44], and SAXS data fitting was performed with CRYSOL[45]."}}, "note": "“Also recorded” adds a separate entry of the source."}
{"smiles": "O=C(C[C@@H](Cc1ccc2ccccc2c1)n1cc(CNC(=O)c2ccc(F)cc2)nn1)NO", "note": "[Compound 1]", "values": [{"measurement": "solubility at 24 h", "setting": "Solubility in PBS pH 7.4", "value": 58, "unit": "µM"}, {"measurement": "Papp A→B at 1 h, 1 μM", "setting": "Caco-2 permeation assay; Caco-2, A→B, 1 μM", "value": 3.3, "unit": "×10⁻⁶ cm/s"}, {"measurement": "Papp A→B at 1 h, 10 μM", "setting": "Caco-2 permeation assay; Caco-2, A→B, 10 μM", "value": 2.4, "unit": "×10⁻⁶ cm/s"}, {"measurement": "Papp B→A at 1 h, 1 μM", "setting": "Caco-2 permeation assay; Caco-2, B→A, 1 μM", "value": 19, "unit": "×10⁻⁶ cm/s"}, {"measurement": "Papp B→A at 1 h, 10 μM", "setting": "Caco-2 permeation assay; Caco-2, B→A, 10 μM", "value": 17, "unit": "×10⁻⁶ cm/s"}, {"measurement": "Aβ1–40 in culture supernatants", "setting": "[1]", "value": "significant elevations; also recorded: significantly increased; also recorded: dose-dependent increase"}, {"measurement": "radius of gyration (Rg) of IDE with compound", "setting": "hIDE; 53.1 Å without compound", "value": 47.6, "unit": "Å"}, {"measurement": "Dmax of IDE with compound", "setting": "hIDE; 180 Å without compound", "value": 160, "unit": "Å"}, {"measurement": "fraction of IDE in the open conformation with compound", "setting": "hIDE; ∼63% open in the absence of compound, fit of SAXS profile", "value": "~16", "unit": "%"}]}
